Tests used:
Format in all cases: in vivo
[1] = Acute Toxicity Study (LD0); details: mice, oral administration
Source text: The result obtained was LD0 in mg/kg =200.

[2] = Asphysic Anoxemia Test (electroencephalogram survival); details: mice, curare, 2 mg/kg, respiratory assistance stopped; for increase in the time necessary for the electroencephalogram to disappear: vs control animals
Method: Curare was administered to mice which were placed under assisted respiration and the products to be tested were administered at a dose of 2 mg/kg, and the respiratory assistance was stopped.

[3] = Hypobaric Anoxemia Test; details: male mice, 15 min before 190 mm Hg, vs control animals
Method: Male mice weighing 20-22 g were used having eaten nothing for 5 hours and they were divided into groups of 10 animals. The product to be tested was administered to the animals subcutaneously. […] The increase in the survival time, expressed as a percentage was calculated for the treated animals in comparison with control animals submitted to the same conditions.

[4] = system: enolase γγ; assay: Enolase Test (kainic acid-induced neuron lesion); details: mice, 1 mg/kg intraperitoneally
Method: Injured cerebral cells release enolase γγ which is a specific indicator of neuron lesion. In this test, the lesions were induced in the mice by sub-cutaneous injection of 35 mg/kg of kainic acid.

CSC[C@@H]1C[C@@H]2c3cccc4[nH]cc(c34)C[C@H]2N(C)C1 [Product A, 6-methyl-8β-(methylthiomethyl)-ergoline]
LD0 (maximum dose which did not cause mortality in 8 days) [1]: 200 mg/kg | electro-encephalographic survival [2]: prolong the electro-encephalographic survival | increase in the time necessary for the electroencephalogram to disappear [2]: 10% | % Increase in the survival time ([3]; 1 mg/kg subcutaneously): 12% | % Increase in the survival time ([3]; 10 mg/kg subcutaneously): 57% | decrease in the serous concentration of enolase ([4]; 1 hour before 35 mg/kg s.c. kainic acid): 29% | protection of cerebral cells in the affected area ([4]; 1 hour before kainic acid): protected the cerebral cells in the affected area

CSC[C@@H]1C=C2c3cccc4[nH]cc(c34)C[C@H]2N(C)C1 [Product B, 6-methyl-8β-methylthiomethyl-9,10-didehydroergoline]
electro-encephalographic survival [2]: prolong the electro-encephalographic survival | increase in the time necessary for the electroencephalogram to disappear [2]: 11%
